The results in this text go back to ChEMBL document CHEMBL1126941, “Synthesis and evaluation of unsymmetrically substituted polyamine analogues as modulators of human spermidine/spermine-N1-acetyltransferase (SSAT) and as potential antitumor agents” (1993).

Assay type in all cases: functional, Homo sapiens
The subject of one assay is LCLC. Briefly: Tested for induction of SSAT activity in H157 LCLC cells following treatment with 10 uM of the BESpm.
Assay [1] has as its system SCLC. Kind of assay: Tested for induction of SSAT activity in H82 SCLC cells following treatment with 10 uM of the BESpm.
Assay [2] deals with SCLC. Kind of assay: Tested for induction of SSAT activity in H82 SCLC cells following treatment with 10 uM BESpm.

Each structure is given as a SMILES string.

As for `Br.Br.Br.Br.C#CCNCCCNCCCNCCCNCC`, the SSAT is 19100 pmol/min/mg with LCLC and 19.8 pmol/min/mg in the assay on SCLC [1].
Turning to `Br.Br.Br.Br.CCNCCCNCCCCNCCCNCC`, the SSAT in the assay with LCLC came out at 38300 pmol/min/mg; in the assay with SCLC [2], 22.7 pmol/min/mg.
Turning to `Br.Br.Br.Br.CCNCCCNCCCNCCCNCC1CC1`, the figures for the SSAT with LCLC and in the assay on SCLC [1] were 42800 pmol/min/mg and 47.1 pmol/min/mg, respectively.
